Source: patent publication US5278176A (Abbott Laboratories, priority 1992, dated 1994)
Structures can show the parent of a compound that is named as a salt.

Experiments:
insecticidal activity = conditions: U.S. Pat. No. 4,093,620; cited from earlier work
[1] = molecular target: Neuronal Nicotinic Receptors; assay: Binding of [^3 H]-methylcarbamylcholine ([^3 H]-MCC) to neuronal nicotinic receptors (Table 1); design: species or system rat
Procedure: Protocols for Determination of Nicotinic Receptor Binding Potencies of Agonists
Binding of [^3 H]-methylcarbamylcholine ([^3 H]-MCC) to nicotinic receptor was accomplished using crude synaptic membrane preparations from whole rat brain (Snyder and Enna, Brain Research, 1975, 100:81). Washed membranes were stored at -80° C. prior to use. Frozen aliquots were slowly thawed and resuspended in 20 volumes of buffer (containing: 120 mM NaCl, 5 mM KCl, 2 mM MgCl2, 2 mM CaCl2 and 50 mM Tris-Cl, pH 7.4 @4° C.). After centrifuging at 20,000 g for 15 minutes, the pellets were resuspended in 30 volumes of buffer. Homogenate (containing 125-150 μg protein) was added to triplicate tubes containing concentrations of test compound and [^3 H]-MCC (3 nM) in a final volume of 500 μL. Samples were incubated for 60 minutes at 4° C., then rapidly filtered through Whatman GF/B filters presoaked in 0.5% polyethylimine using 3×4 mL of ice-cold buffer. The filters are counted in 4 mL of Ecolume® (ICN). […] Alternately, data were expressed as a percentage of the total specific binding.

[2] = test system: anxiolytic activity (time in open arms); assay: Mouse Elevated Plus-Maze Studies; type: in vivo, CD1 mice
Procedure: FIG. 4 is a graphical representation of the effects of the compound of Example 4 (0.003-0.3 mg/kg) on the performance of CD1 mice in the Elevated-Plus Maze Study expressed as median time (seconds) spent on the open arms of the maze.
The mouse elevated plus-maze is a conflict test that probes anxiolytic activity of test compounds (Lister, Psychopharmacology, 1987, 92:180). It is based on the fact that exposure of mice to an elevated open arm leads to an avoidance response considerably stronger than that evoked by exposure to an enclosed arm.
The apparatus required to perform this test is made of plywood and consists of two open arms (17×8 cm) and two enclosed arms (17×8×15 cm) extending from a central platform (8×8 cm). It is mounted on a plywood base rising 39 cm above the floor. Mice are released on the central platform and the time spent in the open and enclosed arms is recorded during a 5 minute test period.
The compound of Example 4 (0.62-6.2 μmol/kg, IP) was administered to CD1 mice 15 minutes before the test.

[3] = test system: retention of the avoidance response; assay: Inhibitory Avoidance Studies; type: in vivo, CD1 mice; conditions: 0.06-6.2 μmol/kg IP, 15 min before training; FIG. 2
Procedure: FIG. 2 is a graphical representation (bar graph) of the effects of the compound of Example 8 (0.001-1.0 mg/kg) on the performance of CD1 mice in Inhibitory Avoidance Studies expressed as median step-through latency time (seconds).
The inhibitory (or sometimes called passive) avoidance (IA) test is a well accepted animal model of learning/memory used to assess the activity of novel muscarinic agonists to enhance cognitive function (Wanibuchi et al., Eur. J. Pharmacol., 1990, 187:479). Animals are placed in the illuminated (12×14×11 cm) portion of a two-chambered box, from which they enter through a guillotine door to the larger (24×13.5×12 cm) dark compartment of the box. Entry to the dark compartment is accompanied by a mild (0.5 mA), brief (2 seconds) footshock. Initial latencies to cross are recorded, with an imposed 60 second ceiling. Following a 72 hour retention interval, animals are returned to the illuminated chamber, and latency to return to the dark compartment is again recorded, with a ceiling of 180 seconds. No footshock is administered on the test day.
Twelve animals were used in each group.

[4] = background statement; cited from earlier work
cortical receptors = conditions: cited from earlier work
[5] = test system: cholinergic receptors located in the heart; conditions: cited from earlier work
parietotemporal cortex = parietotemporal cortex of humans; cited from earlier work
receptors = conditions: chronic nicotine administration; cited from earlier work
withdrawal symptoms = conditions: double-blind studies; cited from earlier work
heart = conditions: in vivo; cited from earlier work
cognitive function = conditions: acutely and chronically administered; preserved in aged animals; cited from earlier work
[6] = test system: anger, irritability, frustration, tension, anxiety; conditions: cited from earlier work
[7] = [^3 H]-MCC (3 nM), whole rat brain membranes, 60 min at 4° C., Cheng-Prusoff from IC50

For `CN1C(C#N)CCC1c1cccnc1` (stereo not drawn) [5'-cyanonicotine], the insecticidal activity (insecticidal activity) is given as “insecticidal activity”.
For `CN1C[C@H](O)CC1c1cccnc1` (stereo partly drawn) [Example 1, 4'-(R)-Hydroxynicotine oxalate], the Ki [1, 7] was 29 nM.
With `CO[C@@H]1CC(c2cccnc2)N(C)C1` (stereo partly drawn) [Example 2, 4'-(R)-Methoxynicotine oxalate] the Ki [1, 7] was 25 nM.
`CN1C[C@@H](F)CC1c1cccnc1` (stereo partly drawn) [Example 3, 4'-(S)-Fluoronicotine dioxalate] showed a Ki [1, 7] of 35 nM.
For `C[C@@H]1CC(c2cccnc2)N(C)C1.O=C(O)C(=O)O.O=C(O)C(=O)O` (stereo partly drawn) [Example 4, 4'-(R)-Methylnicotine dioxalate], the Ki [1, 7] was 4.2 nM, the “anxiolytic response (time in open arms)” value ([2]; 0.62-6.2 μmol/kg IP, 15 min before test, p<0.05 vs control, FIG. 4) was “clear anxiolytic response” and the “anxiolytic effect compared with (-)nicotine” value ([2]; FIG. 4) was “anxiolytic effect similar to (-)nicotine”.
With `CN1C[C@@H](Cc2ccccc2)CC1c1cccnc1` (stereo partly drawn) [Example 5, 4'-(S)-Benzylnicotine dioxalate] the Ki [1, 7] was 135 nM.
Molecule `CC[C@H]1CC(c2cccnc2)N(C)C1` (stereo partly drawn) [Example 6, 4'-(S)-Ethylnicotine dioxalate] has a Ki [1, 7] of 53 nM.
For `CN1C[C@H](CF)CC1c1cccnc1.O=C(O)C(=O)O` (stereo partly drawn) [Example 8, 4'-(R)-Fluoromethylnicotine oxalate], the Ki [1, 7] was 10 nM and the “facilitation of retention of the avoidance response” value [3] was “significantly facilitated the retention of the avoidance response”.
With `CN1CCC(CF)C1c1cccnc1` (stereo not drawn) [Example 9, 3'-Fluoromethylnicotine oxalate] the Ki [1, 7] was 106 nM.
In the case of `CC1CCN(C)C1c1cccnc1` (stereo not drawn) [Example 10, 3'-methylnicotine dioxalate], the Ki [1, 7] is reported as 23 nM.
Molecule `CN1C[C@@H](C#N)CC1c1cccnc1` (stereo partly drawn) [Example 11, 4'-(S)-Cyanonicotine dioxalate] has a Ki [1, 7] of 7 nM.
Molecule `CC(=O)O[C@@H]1CC(c2cccnc2)N(C)C1` (stereo partly drawn) [Example 12, 4'-(R)-Acetyloxynicotine oxalate] has a Ki [1, 7] of 162 nM.
Molecule `CC1CN(C)C(c2cccnc2)C1C` (stereo not drawn) [Example 13, 3',4'-Dimethylnicotine oxalate] has a Ki [1, 7] of 105 nM.
In the case of `CN1C[C@@H](CC#N)CC1c1cccnc1` (stereo partly drawn) [Example 16, 4'-(R)-Cyanomethylnicotine oxalate], the Ki [1, 7] is reported as 53 nM.
In the case of `CN1C[C@H](OS(C)(=O)=O)CC1c1cccnc1` (stereo partly drawn) [Example 19, 4'-(R)-Methanesulfonyoxynicotine oxalate], the Ki [1, 7] is reported as 276 nM.
For `CCN1C(=O)CC2(CCN(C)CC2)C1=O` [RS-86], the potency and selectivity [4] is given as “poor potency and lack of selectivity”, the “agonist efficacy at cortical receptors” value (cortical receptors) is given as “only a partial agonist at cortical receptors” and the “agonist efficacy at cardiac receptors” value [5] is given as “full agonist at cardiac receptors”.
For `COC(=O)C1=CCCN(C)C1` [arecoline], the Ki ([1]; arecoline comparator in text, unit inferred) is listed as 59 nM and the pharmacokinetics [4] is listed as “unfavorable pharmacokinetics”.
In the case of `C[N+](C)(C)CCOC(N)=O` [carbachol], the CNS penetration [4] is listed as “poor CNS penetration”.
In the case of `CNC1(C)C2CCC(C2)C1(C)C` (stereo not drawn) [mecamylamine], the resting cortical perfusion (parietotemporal cortex) is given as “reduces resting cortical perfusion”.
For `CN1CCC[C@H]1c1cccnc1` [nicotine], the “effect on receptor affinity” value (receptors) is given as “without affecting affinity”, the “up-regulation of number of receptors” value (receptors) is given as 50-100% and the Ki [1, 7] is given as 1 nM. For the same molecule, the oral bioavailability [4] was “poor oral bioavailability”, the pharmacokinetics [4] was “unfavorable pharmacokinetics” and the “suppression/prevention of withdrawal signs and symptoms vs placebo” value (withdrawal symptoms) was “far superior to placebo in suppressing or preventing the appearance of many of the signs and symptoms of withdrawal”. For the same molecule, the “time spent in open arms of the maze” value ([2]; (-)nicotine 0.1 and 0.3 mmol/kg, p<0.05 vs saline, 5 min test) was “significant increase in the time spent by the mice in the open arms of the maze”, the “stimulant effects on the heart” value (heart) was “increasing cardiac workload and oxygen demand” and the cognitive function (cognitive function) was “enhances cognitive function in rats”. The anxiolytic properties ([6]; Pomerleau et al. 1984) was “anxiolytic properties” and the “effect on anger, irritability, frustration, tension” value ([6]; U.S. Pat. No. 3,879,794, without general response depression, drowsiness or sedation) was “effective in reducing anger, irritability, frustration and feelings of tension”.
